Data: ChEMBL document CHEMBL1144419, “N-terminal fatty acylated His-dPhe-Arg-Trp-NH(2) tetrapeptides: influence of fatty acid chain length on potency and selectivity at the mouse melanocortin receptors and human melanocytes” (J Med Chem, 2005)

Assays:
Assay type in all cases: functional
[1] = target: Melanocortin receptor 4 (Mus musculus, UniProt P56450); assay: In vitro agonist potency for Mouse Melanocortin 4 receptor
[2] = target: Melanocortin receptor 5 (Mus musculus, UniProt P41149); assay: In vitro agonist potency for Mouse Melanocortin 5 receptor
[3] = target: Melanocyte-stimulating hormone receptor (Mus musculus, UniProt Q01727); assay: In vitro agonist potency for Mouse Melanocortin 1 receptor
[4] = target: Melanocortin receptor 3 (Mus musculus, UniProt P33033); assay: In vitro agonist potency for Mouse Melanocortin 3 receptor
Chain of Melanocortin receptor 3 (P33033 whole entry): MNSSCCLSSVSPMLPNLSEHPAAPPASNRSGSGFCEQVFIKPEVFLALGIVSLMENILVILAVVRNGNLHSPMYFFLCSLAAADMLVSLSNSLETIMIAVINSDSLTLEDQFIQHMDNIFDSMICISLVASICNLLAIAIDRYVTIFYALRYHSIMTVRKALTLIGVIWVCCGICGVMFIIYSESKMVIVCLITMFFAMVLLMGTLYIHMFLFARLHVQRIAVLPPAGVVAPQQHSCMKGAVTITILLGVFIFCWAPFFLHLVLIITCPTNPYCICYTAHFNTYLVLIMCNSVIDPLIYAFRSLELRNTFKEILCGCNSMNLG

Chain of Melanocortin receptor 5 (P41149 whole entry): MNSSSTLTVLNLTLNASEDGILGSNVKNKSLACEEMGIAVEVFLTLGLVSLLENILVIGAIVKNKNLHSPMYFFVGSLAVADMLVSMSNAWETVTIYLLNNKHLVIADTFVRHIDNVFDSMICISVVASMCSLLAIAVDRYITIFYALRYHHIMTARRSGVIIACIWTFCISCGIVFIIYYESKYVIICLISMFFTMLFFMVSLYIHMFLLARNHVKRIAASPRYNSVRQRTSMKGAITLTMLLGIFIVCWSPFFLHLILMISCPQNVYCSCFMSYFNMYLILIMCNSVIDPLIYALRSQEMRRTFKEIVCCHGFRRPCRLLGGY
Chain of Melanocyte-stimulating hormone receptor (Q01727 whole entry): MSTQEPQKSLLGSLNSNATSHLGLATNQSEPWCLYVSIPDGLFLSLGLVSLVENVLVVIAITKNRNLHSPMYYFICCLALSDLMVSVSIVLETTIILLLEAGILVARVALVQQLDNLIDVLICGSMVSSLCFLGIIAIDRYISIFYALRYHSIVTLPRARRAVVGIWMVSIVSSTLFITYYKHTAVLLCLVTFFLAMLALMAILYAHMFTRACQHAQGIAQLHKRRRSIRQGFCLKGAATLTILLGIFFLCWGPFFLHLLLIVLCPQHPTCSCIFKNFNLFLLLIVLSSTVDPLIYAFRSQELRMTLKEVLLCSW
Chain of Melanocortin receptor 4 (P56450 whole entry): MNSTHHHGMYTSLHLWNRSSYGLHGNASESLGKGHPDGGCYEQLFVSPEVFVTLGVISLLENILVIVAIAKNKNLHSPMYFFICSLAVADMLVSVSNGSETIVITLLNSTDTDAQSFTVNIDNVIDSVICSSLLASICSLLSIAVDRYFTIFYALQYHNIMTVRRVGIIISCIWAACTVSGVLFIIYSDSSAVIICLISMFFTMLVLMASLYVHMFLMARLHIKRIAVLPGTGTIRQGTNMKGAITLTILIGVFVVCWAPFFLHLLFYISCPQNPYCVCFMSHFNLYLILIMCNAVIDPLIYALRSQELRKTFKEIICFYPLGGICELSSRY

Row | Structure (SMILES) | EC50 [1] | EC50 [2] | EC50 [3] | EC50 [4]
1 | N=C(N)NCCC[C@H](NC(=O)[C@@H](Cc1ccccc1)NC(=O)[C@@H](N)Cc1cnc[nH]1)C(=O)N[C@@H](Cc1c[nH]c2ccccc12)C(N)=O | 18.5 nM | 2.78 nM | 67 nM | 250 nM
2 | CCCCCCCCCCCCCC(=O)N[C@@H](Cc1c[nH]cn1)C(=O)N[C@H](Cc1ccccc1)C(=O)N[C@@H](CCCN=C(N)N)C(=O)N[C@@H](Cc1c[nH]c2ccccc12)C(N)=O | 10.5 nM | 3.39 nM | 0.58 nM | 220 nM
3 | CCCCCCCCCC(=O)N[C@@H](Cc1c[nH]cn1)C(=O)N[C@H](Cc1ccccc1)C(=O)N[C@@H](CCCN=C(N)N)C(=O)N[C@@H](Cc1c[nH]c2ccccc12)C(N)=O | 14.4 nM | 4.83 nM | 3.34 nM | 44.8 nM
4 | CC(=O)N[C@@H](Cc1cnc[nH]1)C(=O)N[C@H](Cc1ccccc1)C(=O)N[C@@H](CCCN=C(N)N)C(=O)N[C@@H](Cc1c[nH]c2ccccc12)C(N)=O | 10.7 nM |  |  | 
5 | CCCCCCCC(=O)N[C@@H](Cc1c[nH]cn1)C(=O)N[C@H](Cc1ccccc1)C(=O)N[C@@H](CCCN=C(N)N)C(=O)N[C@@H](Cc1c[nH]c2ccccc12)C(N)=O | 2.52 nM | 0.57 nM | 0.33 nM | 9.29 nM

Continued, values first:

Row | EC50 [1] | EC50 [2] | EC50 [3] | EC50 [4] | Structure (SMILES)
6 | 21.4 nM | 2.82 nM | 0.72 nM | 266 nM | CCCCCCCCCCCCCCCCC(=O)N[C@@H](Cc1c[nH]cn1)C(=O)N[C@H](Cc1ccccc1)C(=O)N[C@@H](CCCN=C(N)N)C(=O)N[C@@H](Cc1c[nH]c2ccccc12)C(N)=O
7 | 20.6 nM | 4.43 nM | 0.94 nM | 139 nM | CCCCCCCCCCCCC(=O)N[C@@H](Cc1cnc[nH]1)C(=O)N[C@H](Cc1ccccc1)C(=O)N[C@@H](CCCNC(=N)N)C(=O)N[C@@H](Cc1c[nH]c2ccccc12)C(N)=O
8 | 19 nM | 10 nM | 2.8 nM | 102 nM | CCCCCCCCCCC(=O)N[C@@H](Cc1cnc[nH]1)C(=O)N[C@H](Cc1ccccc1)C(=O)N[C@@H](CCCNC(=N)N)C(=O)N[C@@H](Cc1c[nH]c2ccccc12)C(N)=O
9 | 26.6 nM | 2.99 nM | 0.99 nM | 154 nM | CCCCCCCCCCCCCCCC(=O)N[C@@H](Cc1cnc[nH]1)C(=O)N[C@H](Cc1ccccc1)C(=O)N[C@@H](CCCNC(=N)N)C(=O)N[C@@H](Cc1c[nH]c2ccccc12)C(N)=O
10 | 13.2 nM | 3.02 nM | 2.07 nM | 134 nM | CCCCCCCCCCCCCCC(=O)N[C@@H](Cc1c[nH]cn1)C(=O)N[C@H](Cc1ccccc1)C(=O)N[C@@H](CCCN=C(N)N)C(=O)N[C@@H](Cc1c[nH]c2ccccc12)C(N)=O
11 | 1.14 nM | 0.88 nM | 0.4 nM | 5.1 nM | CCCCCCCCC(=O)N[C@@H](Cc1cnc[nH]1)C(=O)N[C@H](Cc1ccccc1)C(=O)N[C@@H](CCCNC(=N)N)C(=O)N[C@@H](Cc1c[nH]c2ccccc12)C(N)=O
